± gives the standard deviation of the averaged measurements. Values belong to the molecule of their own block, whether it stands above or below them.
Assay: TIMS collisional cross section (CCS, N2) of the lipid ion; higher = larger ion cross section
Conditions: ionization mode: negative, one isomer drawn
Protocol: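 Lipid extracts of human plasma (NIST SRM 1950), mouse liver or HeLa cells were separated by nanoflow C18 LC (30 min gradient) and analysed by TIMS-PASEF on a timsTOF Pro. Ion mobility was calibrated with the Agilent tuning mix (negative mode ions) and converted to collisional cross sections (Mason–Schamp, N2).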

[1] = sample type: Mouse Liver, ion (formula + adduct): [C48H88NO8P+HCOO] 1-
[2] = sample type: Human plasma, ion (formula + adduct): [C48H84NO8P+HCOO] 1-
[3] = sample type: Mouse Liver, ion (formula + adduct): [C48H84NO8P+HCOO] 1-
[4] = sample type: Mouse Liver, ion (formula + adduct): [C44H80NO8P+HCOO] 1-
[5] = sample type: Human plasma, ion (formula + adduct): [C46H82NO8P+HCOO] 1-
[6] = sample type: Mouse Liver, ion (formula + adduct): [C46H78NO8P-CH3] 1-
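Note: lipids from MTBE extraction, five replicate injections per sample, 100 ms TIMS ramp spanning 0.6–1.95 Vs/cm², lipid identity assigned from PASEF MS/MS spectra.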

Structure (SMILES): CCCCC/C=C\C/C=C\C/C=C\C/C=C\CCCCCC(=O)O[C@H](COC(=O)CCCCCCCCCCCCCCCCC)COP(=O)([O-])OCC[N+](C)(C)C [PC 18:0_22:4]
- TIMS collisional cross section (sample type: Human plasma, ion (formula + adduct): [C48H88NO8P+HCOO] 1-): 305.1 Å²
- TIMS collisional cross section [1]: 304.5 Å²

Structure (SMILES): CC/C=C\C/C=C\C/C=C\C/C=C\C/C=C\C/C=C\CCC(=O)O[C@H](COC(=O)CCCCCCCCCCCCCCCCC)COP(=O)([O-])OCC[N+](C)(C)C [PC 18:0_22:6]
- TIMS collisional cross section [2]: 303.4 Å²
- TIMS collisional cross section [3]: 302.2 Å²

Structure (SMILES): CC/C=C\C/C=C\C/C=C\CCCCCCCC(=O)O[C@H](COC(=O)CCCCCCC/C=C\CCCCCCCC)COP(=O)([O-])OCC[N+](C)(C)C [PC 18:1@_18:3]
- TIMS collisional cross section [4]: 292.7 Å²

Structure (SMILES): CCCCC/C=C\C/C=C\C/C=C\C/C=C\CCCC(=O)O[C@H](COC(=O)CCCCCCC/C=C\CCCCCCCC)COP(=O)([O-])OCC[N+](C)(C)C [PC 18:1@_20:4]
- TIMS collisional cross section [5]: 298.3 Å²

Structure (SMILES): CCCCCCCC/C=C\CCCCCCCC(=O)OC[C@H](COP(=O)([O-])OCC[N+](C)(C)C)OC(=O)CCCCCCCCCCCCCCCCCC [PC 18:1_19:0]
- TIMS collisional cross section (sample type: Mouse Liver, ion (formula + adduct): [C45H88NO8P+HCOO] 1-): 299.5 Å²

Structure (SMILES): CCCCC/C=C\C/C=C\C/C=C\C/C=C\CCCC(=O)O[C@H](COC(=O)CCCCCCC/C=C\CCCCCCCC)COP(=O)([O-])OCC[N+](C)(C)C [PC 18:1_20:4]
- TIMS collisional cross section [5]: 298.3 Å²
- TIMS collisional cross section (sample type: Mouse Liver, ion (formula + adduct): [C46H82NO8P+HCOO] 1-): 297.7 Å²

Structure (SMILES): CCCCC/C=C/C=C\CCCCCCCC(=O)O[C@H](COC(=O)CCCCCCC/C=C\C/C=C/CCCCC)COP(=O)([O-])OCC[N+](C)(C)C [PC 18:2_17:2]
- TIMS collisional cross section (sample type: Mouse Liver, ion (formula + adduct): [C43H78NO8P+HCOO] 1-): 289.3 Å²

Structure (SMILES): CCCCCCCCCCCCC/C=C/C=C/C(=O)OC[C@H](COP(=O)([O-])OCC[N+](C)(C)C)OC(=O)/C=C/C=C/CCCCCCCCCCCCC [PC 18:2_18:2]
- TIMS collisional cross section (sample type: Human plasma, ion (formula + adduct): [C44H80NO8P+HCOO] 1-): 293.4 ± 0.35 Å²
- TIMS collisional cross section [4]: 292.7 Å²

Structure (SMILES): CCCCC/C=C\C/C=C\CCCCCCCC(=O)OC[C@H](COP(=O)([O-])OCC[N+](C)(C)C)OC(=O)CCCCCCCCCCCCCCCCCC [PC 18:2_19:0]
- TIMS collisional cross section (sample type: Mouse Liver, ion (formula + adduct): [C45H86NO8P+HCOO] 1-): 299 Å²

Structure (SMILES): CCCCC/C=C\C/C=C\CCCCCCCCCC(=O)O[C@H](COC(=O)CCCCCCC/C=C\C/C=C\CCCCC)COP(=O)([O-])OCC[N+](C)(C)C [PC 18:2_20:2]
- TIMS collisional cross section (sample type: Human plasma, ion (formula + adduct): [C46H84NO8P+HCOO] 1-): 299.5 Å²

Structure (SMILES): CCCC/C=C/C=C/C=C/CCCCCCCC(=O)OC[C@H](COP(=O)([O-])OCC[N+](C)(C)C)OC(=O)CCCCCCC/C=C/C=C/C=C/CCCC [PC 18:3_18:3]
- TIMS collisional cross section (sample type: Mouse Liver, ion (formula + adduct): [C44H76NO8P+HCOO] 1-): 289.8 Å²

Structure (SMILES): CC/C=C\C/C=C\C/C=C\C/C=C\C/C=C\C/C=C\CCC(=O)O[C@H](COC(=O)CCCC/C=C\C/C=C\C/C=C\C/C=C\CC)COP(=O)([O-])OCC[N+](C)(C)C [PC 18:4@_22:6]
- TIMS collisional cross section (sample type: Mouse Liver, ion (formula + adduct): [C48H76NO8P-CH3] 1-): 280 Å²

Structure (SMILES): CCCCCCCCCCCCCCCCCCC(=O)OC[C@H](COP(=O)([O-])OCC[N+](C)(C)C)OC(C)=O [PC 19:0@_2:0]
- TIMS collisional cross section (sample type: Human plasma, ion (formula + adduct): [C29H58NO8P-H] 1-): 244.4 Å²

Structure (SMILES): CC/C=C\C/C=C\C/C=C\C/C=C\C/C=C\C/C=C\CCC(=O)O[C@H](COC(=O)CCCCCCCCCCCCCCCCCCC)COP(=O)([O-])OCC[N+](C)(C)C [PC 20:0@_22:6]
- TIMS collisional cross section (sample type: Mouse Liver, ion (formula + adduct): [C50H88NO8P+HCOO] 1-): 308.5 Å²

Structure (SMILES): CCCCC/C=C\C/C=C\C/C=C\C/C=C\CCCC(=O)O[C@H](COC(=O)CCCCCCCCCCCCCCCCCCC)COP(=O)([O-])OCC[N+](C)(C)C [PC 20:0_20:4]
- TIMS collisional cross section [1]: 304.5 Å²

Structure (SMILES): CC/C=C\C/C=C\C/C=C\C/C=C\C/C=C\C/C=C\CCC(=O)O[C@H](COC(=O)CCC/C=C\C/C=C\C/C=C\C/C=C\C/C=C\CC)COP(=O)([O-])OCC[N+](C)(C)C [PC 20:5_22:6]
- TIMS collisional cross section (sample type: Mouse Liver, ion (formula + adduct): [C50H78NO8P+HCOO] 1-): 300.4 Å²

Structure (SMILES): CC/C=C\C/C=C\C/C=C\C/C=C\C/C=C\C/C=C\CCC(=O)OC[C@H](COP(=O)([O-])OCC[N+](C)(C)C)OC(=O)CC/C=C\C/C=C\C/C=C\C/C=C\C/C=C\C/C=C\CC [PC 22:6_22:6]
- TIMS collisional cross section (sample type: Mouse Liver, ion (formula + adduct): [C52H80NO8P+HCOO] 1-): 304.9 Å²

Structure (SMILES): CCCCCCCCCCCCCCCCCC(=O)O[C@H](COCCCCCCCCCCCCCC)COP(=O)([O-])OCC[N+](C)(C)C [PC O- 14:0@_18:0]
- TIMS collisional cross section (sample type: Mouse Liver, ion (formula + adduct): [C40H82NO7P+HCOO] 1-): 287.2 Å²

Structure (SMILES): CCCCCCCC/C=C\CCCCCCCC(=O)O[C@H](COCCCCCCCCCCCCCC)COP(=O)([O-])OCC[N+](C)(C)C [PC O- 14:0@_18:1]
- TIMS collisional cross section (sample type: Human plasma, ion (formula + adduct): [C40H80NO7P+HCOO] 1-): 286.1 Å²

Next, values leading:

- TIMS collisional cross section [2]: 302.8 Å²
- TIMS collisional cross section [3]: 302.2 Å²
Structure (SMILES): CC/C=C\C/C=C\C/C=C\C/C=C\C/C=C\CCCCCC(=O)O[C@H](COC(=O)CCCCCCCCC/C=C\CCCCCC)COP(=O)([O-])OCC[N+](C)(C)C [PC 18:1_22:5]

- TIMS collisional cross section [3]: 301.7 Å²
Structure (SMILES): CCCCC/C=C\C/C=C\C/C=C\C/C=C\CCCCCC(=O)O[C@H](COC(=O)CCCCCCC/C=C\C/C=C\CCCCC)COP(=O)([O-])OCC[N+](C)(C)C [PC 18:2@_22:4]

- TIMS collisional cross section [5]: 299.2 Å²
Structure (SMILES): CCCCC/C=C\C/C=C\C/C=C\CCCCCCC(=O)O[C@H](COC(=O)CCCCCCC/C=C\C/C=C\CCCCC)COP(=O)([O-])OCC[N+](C)(C)C [PC 18:2_20:3]

- TIMS collisional cross section (sample type: Human plasma, ion (formula + adduct): [C46H80NO8P+HCOO] 1-): 296.8 ± 0.92 Å²
- TIMS collisional cross section (sample type: Mouse Liver, ion (formula + adduct): [C46H80NO8P+HCOO] 1-): 295.7 ± 0.42 Å²
Structure (SMILES): CCCCC/C=C\C/C=C\C/C=C\C/C=C\CCCC(=O)O[C@H](COC(=O)CCCCCCC/C=C\C/C=C\CCCCC)COP(=O)([O-])OCC[N+](C)(C)C [PC 18:2_20:4]

- TIMS collisional cross section [6]: 276.6 Å²
Structure (SMILES): CC/C=C\C/C=C\C/C=C\C/C=C\C/C=C\CCCC(=O)O[C@H](COC(=O)CCCCCCC/C=C\C/C=C\CCCCC)COP(=O)([O-])OCC[N+](C)(C)C [PC 18:2_20:5@]

- TIMS collisional cross section (sample type: Human plasma, ion (formula + adduct): [C46H78NO8P+HCOO] 1-): 294.9 Å²
Structure (SMILES): CC/C=C\C/C=C\C/C=C\C/C=C\C/C=C\CCCC(=O)O[C@H](COC(=O)CCCCCCC/C=C\C/C=C\CCCCC)COP(=O)([O-])OCC[N+](C)(C)C [PC 18:2_20:5]

- TIMS collisional cross section (sample type: Human plasma, ion (formula + adduct): [C48H84NO8P-CH3] 1-): 303.8 Å²
Structure (SMILES): CCCCC/C=C\C/C=C\C/C=C\C/C=C\CCCCCC(=O)O[C@H](COC(=O)CCCCCCC/C=C\C/C=C\CCCCC)COP(=O)([O-])OCC[N+](C)(C)C [PC 18:2_22:4@]

- TIMS collisional cross section (sample type: Mouse Liver, ion (formula + adduct): [C48H82NO8P+HCOO] 1-): 299.9 Å²
Structure (SMILES): CCCCC/C=C\C/C=C\C/C=C\C/C=C\C/C=C\CCC(=O)O[C@H](COC(=O)CCCCCCC/C=C\C/C=C\CCCCC)COP(=O)([O-])OCC[N+](C)(C)C [PC 18:2_22:5]

- TIMS collisional cross section (sample type: Human plasma, ion (formula + adduct): [C48H80NO8P+HCOO] 1-): 298.8 Å²
- TIMS collisional cross section (sample type: Mouse Liver, ion (formula + adduct): [C48H80NO8P+HCOO] 1-): 298.8 Å²
Structure (SMILES): CC/C=C\C/C=C\C/C=C\C/C=C\C/C=C\C/C=C\CCC(=O)O[C@H](COC(=O)CCCCCCC/C=C\C/C=C\CCCCC)COP(=O)([O-])OCC[N+](C)(C)C [PC 18:2_22:6]

- TIMS collisional cross section (sample type: Mouse Liver, ion (formula + adduct): [C46H78NO8P+HCOO] 1-): 296 Å²
- TIMS collisional cross section [6]: 277.2 Å²
Structure (SMILES): CCCCC/C=C\C/C=C\C/C=C\C/C=C\CCCC(=O)O[C@H](COC(=O)CCCC/C=C\C/C=C\C/C=C\CCCCC)COP(=O)([O-])OCC[N+](C)(C)C [PC 18:3@_20:4]

- TIMS collisional cross section (sample type: Human plasma, ion (formula + adduct): [C46H80NO8P+AcO] 1-): 300.6 Å²
Structure (SMILES): CCCCC/C=C\C/C=C\C/C=C\CCCCCCC(=O)O[C@H](COC(=O)CCCC/C=C\C/C=C\C/C=C\CCCCC)COP(=O)([O-])OCC[N+](C)(C)C [PC 18:3_20:3]

- TIMS collisional cross section (sample type: Mouse Liver, ion (formula + adduct): [C50H86NO8P+HCOO] 1-): 306.7 Å²
Structure (SMILES): CC/C=C\C/C=C\C/C=C\C/C=C\C/C=C\C/C=C\CCC(=O)O[C@H](COC(=O)CCCCCCCCC/C=C\CCCCCCCC)COP(=O)([O-])OCC[N+](C)(C)C [PC 20:1_22:6@]

- TIMS collisional cross section (sample type: Mouse Liver, ion (formula + adduct): [C50H84NO8P+HCOO] 1-): 303.9 Å²
Structure (SMILES): CC/C=C\C/C=C\C/C=C\C/C=C\C/C=C\C/C=C\CCC(=O)O[C@H](COC(=O)CCCCCCCCC/C=C\C/C=C\CCCCC)COP(=O)([O-])OCC[N+](C)(C)C [PC 20:2@_22:6]
